# Results reported in publication PMC9960696, “Functional Expression of Recombinant Candida auris Proteins in Saccharomyces cerevisiae Enables Azole Susceptibility Evaluation and Drug Discovery” (Journal of Fungi, 2023).
# Target: T1, CauErg11-6×His (Candidozyma auris, UniProt A0A2H1A309)
# T1 construct: gene B9J08_03698; full-length, C-terminal GGR linker and 6xHis kept; expressed in S. cerevisiae ADΔΔ (Y2767, native ERG11 deleted); DM-solubilised, Ni-NTA partially purified; mutant Y132F in strain Y2768
# Test: type II difference spectra titration
# Format: binding
# From the text: type II difference spectra titration on CauErg11-6×His
# T1 sequence (A0A2H1A309 entry or part of it): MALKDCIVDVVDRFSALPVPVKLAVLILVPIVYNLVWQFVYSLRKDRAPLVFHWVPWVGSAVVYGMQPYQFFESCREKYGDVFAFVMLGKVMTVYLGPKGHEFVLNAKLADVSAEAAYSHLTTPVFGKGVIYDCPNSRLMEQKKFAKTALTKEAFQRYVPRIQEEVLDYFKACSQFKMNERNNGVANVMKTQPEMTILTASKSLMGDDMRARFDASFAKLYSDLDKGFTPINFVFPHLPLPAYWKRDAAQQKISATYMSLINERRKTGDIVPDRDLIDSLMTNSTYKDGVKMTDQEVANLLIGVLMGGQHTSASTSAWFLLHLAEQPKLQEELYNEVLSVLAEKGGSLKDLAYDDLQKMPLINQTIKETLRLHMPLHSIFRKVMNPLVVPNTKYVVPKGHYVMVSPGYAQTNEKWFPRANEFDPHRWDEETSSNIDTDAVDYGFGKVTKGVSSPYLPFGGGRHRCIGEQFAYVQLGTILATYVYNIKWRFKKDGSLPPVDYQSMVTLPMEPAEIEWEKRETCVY
row,SMILES,Kd
1,"C[C@@H](c1nc(-c2ccc(C#N)cc2)cs1)[C@](O)(Cn1cncn1)c1cc(F)ccc1F [ISA, Isavuconazole]",200 nM
2,"CC[C@@H]([C@H](C)O)n1ncn(-c2ccc(N3CCN(c4ccc(OC[C@@H]5CO[C@@](Cn6cncn6)(c6ccc(F)cc6F)C5)cc4)CC3)cc2)c1=O [POS, Posaconazole]",340 nM
3,"C[C@@H](c1ncncc1F)[C@](O)(Cn1cncn1)c1ccc(F)cc1F [VRC, Voriconazole]",740 nM
